{"source": "paper PMC3125470", "about": "(Biochemistry, 2011)", "target": "T1, MsPat (MSMEG_5458) (Mycolicibacterium smegmatis, UniProt A0R3F9)", "T1 sequence (A0R3F9 1-333)": "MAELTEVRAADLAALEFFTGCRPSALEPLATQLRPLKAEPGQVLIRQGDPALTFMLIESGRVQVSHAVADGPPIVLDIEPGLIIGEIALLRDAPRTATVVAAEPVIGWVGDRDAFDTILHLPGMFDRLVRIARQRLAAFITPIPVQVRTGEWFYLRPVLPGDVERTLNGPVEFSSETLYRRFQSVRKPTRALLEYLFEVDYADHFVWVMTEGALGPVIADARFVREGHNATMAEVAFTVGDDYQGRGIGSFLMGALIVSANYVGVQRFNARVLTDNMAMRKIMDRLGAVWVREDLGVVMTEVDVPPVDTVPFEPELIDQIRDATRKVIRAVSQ", "test": "fluorescent labeling of ACS and time-dependent ACS inactivation", "format": "biochemical", "details": "1 mM cGMP in place of cAMP; weak activator, allosteric", "data": [{"smiles": "Nc1nc2c(ncn2[C@@H]2O[C@@H]3COP(=O)(O)O[C@H]3[C@H]2O)c(=O)[nH]1", "note": "[cGMP]", "values": [{"measurement": "fluorescent labeling of ACS and time-dependent ACS inactivation", "value": "Much weaker labeling of ACS was observed when cAMP was replaced with cGMP"}]}]}
